Experimental data taken from BindingDB's records for doi:10.1016/j.bmcl.2009.09.046 (Ligand Pharmaceuticals, 2009).

test: Inhibition of ROCK1 in human THP1 cells assessed as inhibition of MCP1-induced cell migration

In order of rising IC50:
1. c1ccc2c(c1)CC(Nc1cc(Nc3ccncc3)nc(N3CCNCC3)n1)C2 [N4-(2,3-dihydro-1H-inden-2-yl)-2-(piperazin-1-yl)-N6-(pyridin-4-yl)pyrimidine-4,6-diamine]  12 nM
2. C[C@@H]1CN(c2nc(Nc3ccncc3)nc(NC3Cc4ccccc4C3)n2)CCN1 [(R)-N2-(2,3-dihydro-1H-inden-2-yl)-6-(3-methylpiperazin-1-yl)-N4-(pyridin-4-yl)-1,3,5-triazine-2,4-diamine]  26 nM
3. c1ccc2c(c1)CC(Oc1nc(Nc3ccncc3)nc(N3CCNCC3)n1)C2 [4-(2,3-dihydro-1H-inden-2-yloxy)-6-(piperazin-1-yl)-N-(pyridin-4-yl)-1,3,5-triazin-2-amine]  57 nM
4. c1ccc2c(c1)CC(Nc1cc(N3CCNCC3)nc(Nc3ccncc3)n1)C2 [N4-(2,3-dihydro-1H-inden-2-yl)-6-(piperazin-1-yl)-N2-(pyridin-4-yl)pyrimidine-2,4-diamine]  154 nM
